Where two headings read alike, the source gives them in different places. Peptide text beside a SMILES is read from it.
What was measured:
[1] = target: T1, human APJ receptor (hAPJ) (Homo sapiens, UniProt P35414); assay: HTRF cAMP assay: inhibition of NKH477-stimulated cAMP in HEK cells stably expressing hAPJ; assay type: cell-based; conditions: for % IA (cAMP inhibition, hAPJ HEK): intrinsic activity; for Ranking: composite class of EC50 (hAPJ), % IA and % histamine or formal (+) charge; for Emax: HEK293, read-out: % IA, bound stated
T1 construct: expressed in transfected cells
T1 sequence (P35414 1-380): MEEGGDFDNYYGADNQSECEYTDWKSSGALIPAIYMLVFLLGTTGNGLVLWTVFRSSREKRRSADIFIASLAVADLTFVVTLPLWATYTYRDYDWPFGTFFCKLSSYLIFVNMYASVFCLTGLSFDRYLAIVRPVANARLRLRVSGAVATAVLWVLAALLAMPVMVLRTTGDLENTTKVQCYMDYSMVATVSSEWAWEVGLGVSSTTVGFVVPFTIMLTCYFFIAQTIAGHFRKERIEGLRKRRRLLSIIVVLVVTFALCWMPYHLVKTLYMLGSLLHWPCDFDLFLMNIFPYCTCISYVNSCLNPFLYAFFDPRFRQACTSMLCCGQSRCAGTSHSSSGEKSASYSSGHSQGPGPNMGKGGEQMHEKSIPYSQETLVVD
Description: HTRF cAMP Assay and IP-One Assay (Cisbio)
HTRF (homogeneous time resolved fluorescence) is a technology developed by Cisbio Bioassays based on TR-FRET (time-resolved fluorescence resonance energy transfer). Cisbio Bioassays has developed a wide selection of HTRF-based assays compatible with whole cells, thereby enabling functional assays to run under more physiological conditions. The IP-One assays are competitive immunoassays using cryptate-labeled anti-IP1 monoclonal antibody and d2-labeled IP1. IP1 is a relatively stable downstream metabolite of IP3, and accumulates in cells following Gq receptor activation.
cAMP kits based on a competitive immunoassay using cryptate-labeled anti-cAMP antibody and d2-labeled cAMP were used to assay the effects of APJ compounds of the present invention. […] Cells are treated with 1 nG/mL doxycycline and seeded in all white 96 well plates @40 k/well overnight.

rat peritoneal cells = assay: Ex vivo histamine release assay in rat peritoneal cells (vs. Compound 48/80); assay type: cell-based
Description: More desirable pharmacological tolerability can include a decrease in an undesirable side effect (e.g., histamine release, an indicator of mast cell degranulation) without a significant loss in activity of the compound.
Screening of the variant G protein receptor compounds against a control compound for histamine release can be done following standard assays. The standard assay can include comparison to a control compound known to elicit a histamine response (e.g., 48/80 having CAS No. 94724-12-6). Such an assay using rat peritoneal cells is described herein for the APJ compounds.
Test compounds were assayed in the ex vivo histamine release assay using a 3-point dose response. Concentrations of total histamine contained in the cells is used to correct for variability in the numbers of mast cells in the lavage per well.
Resident peritoneal cells were harvested from naïve Sprague Dawley rats (male 200-300 gr, Charles River). Rats were euthanized by CO2 asphyxiation and a skin incision was made along the middle-line of the abdomen. Thirty milliliters of HBSS (HyClone, cat#SH 30268.01) containing 20 mM HEPES and 0.2% BSA (heretofore Assay Buffer) were injected intraperitoneally using a 30 mL syringe with the attached 18 gauge needle. The abdomen was gently lavaged for 1-2 min and 7-10 milliliters of the peritoneal lavage were carefully aspirated. Cell count in the peritoneal lavage was determined using Cellometer Auto T4 (Nexcelom Bioscience). The peritoneal cell count was adjusted to […] cells/mL in Assay Buffer. Rat peritoneal cells were kept at room temperature before and during the assay.
For the 10-point assay, 3-fold serial dilutions were prepared for each test compound in 100% DMSO in 96-well plates (Greiner Bio One, Ref#651261)—from 100 μM down to […]. For the 3-point assay, 10-fold serial dilutions were prepared in 100% DMSO at 100 μM, 10 μM and 1 μM concentrations. From this plate, 5 μL of compound were transferred to a new plate containing 45 μL Assay Buffer to generate a compound plate with 10× final concentrations in 10% DMSO with Assay Buffer. In the final plates, column 11 contained 1% DMSO for the low-histamine-releasing control.
Suspensions of the rat peritoneal cells (90 μL of 2.75×10^5 cells/mL; →25,000 cells per well) were introduced into each well of a new 96-well microtiter plate (Greiner Bio One, Ref#651261) and 10 μL aliquots of the serially diluted compounds were transferred to the cells in each well. The microtiter plate was incubated for 30 min at room temperature. Following incubation cells were spun down (500 rpm, 7 min) and supernatants were collected for further analysis. Supernatants were diluted 6 times with the assay buffer (15 μL to 75 μL, for 90 μL total) and released histamine content was determined using HTRF® Histamine assay kit (CisBio, cat#62HTMPEB). To measure the total histamine in each well, cells were lysed by addition of 15 μL 5% TritonX-100 to each well followed by incubation for 15 minutes. The plates were then spun at 3000 rpm for 5 minutes, and 10 μL of supernatant were diluted 9-fold in assay buffer (10 μL to 80 μL for 90 μL total) to make the “total” histamine plate. Histamine content was measured as described above for the “released” histamine values.
The standard positive control was Compound 48/80 (Enzo Life Sciences), a oligomeric polymer mixture produced by the condensation of N-methyl-p-methoxyphenethylamine with formaldehyde. The trimer is the most abundant in the mixture Compound 48/80 is used to promote mast cell degranulation and activates G proteins by a mechanism analogous to that of mastoparan. […] See references: T. Higashijima et al., J. Biol., Chem., 265 14176 (1990); M. Mousli et al., FEBS Lett., 259 260 (1990); K. Gietzen et al., Biochim. Biophys. Acta, 736 109 (1983); K. Gietzen, Biochem. J., 1983 216 611 and C. Bronner et al., Biochim. Biophys. Acta, 920 301(1987).

[2] = EC50 (cAMP inhibition, hAPJ HEK), Table 6, hAPJ HEK cells, NKH477-stimulated cAMP
[3] = histamine release from rat peritoneal cells relative to Compound 48/80
[4] = Table 6, hAPJ HEK cells, NKH477-stimulated cAMP, read-out: EC50 (cAMP inhibition, hAPJ HEK)
[5] = HTRF cAMP Assay, per data of Table 6
[6] = HTRF cAMP Assay, per data of Table 6, read-out: EC50 (hAPJ), inhibition of cAMP production, bound stated

EC50 [1, 4] | Histamine (% vs. 48/80) (rat peritoneal cells) | inhibition of NKH477-stimulated increase in cAMP, dose dependent ([1]; concentration response curves, FIGS. 1 and 2, HEK cells stably expressing APJ) | SMILES | EC50 [1, 2] | % IA (cAMP inhibition, hAPJ HEK) ([1]; Table 6, hAPJ HEK cells) | Ranking [1] | Histamine (% vs. 48/80) (rat peritoneal cells; [3]) | Emax [1, 5] | EC50 [1, 6] | EC50 ([1]; EC50 (hAPJ), inhibition of cAMP production, bound stated, HTRF cAMP Assay, per data of Table 6)
– | – | – | CCCCCCCCCCCCCCCC(=O)N[C@H](C(=O)N[C@H](C(=O)N1CCC[C@H]1C(=O)N[C@@H](Cc1ccccc1)C(=O)N[C@@H](CCCNC(=N)N)C(=O)N[C@@H](CO)C(=O)N[C@@H](CO)C(=O)N[C@@H](CCC(=O)O)C(=O)N1CCC[C@H]1C(=O)N[C@H](CCCCN)C(=O)N[C@@H](CCCNC(=N)N)C(=O)N[C@@H](CCCNC(=N)N)C(=O)N[C@@H](CO)C(=O)N[C@@H](C)C(=O)N[C@@H](CC(=O)O)C(=O)N[C@H](C(=O)N[C@@H](Cc1ccccc1)C(=O)N[C@H](C(N)=O)[C@@H](C)CC)[C@@H](C)CC)C(C)C)[C@@H](C)O [Compound 1] (HELM PEPTIDE1{[CCCCCCCCCCCCCCCC(=O)[*:2]].T.V.P.F.R.S.S.E.P.[dK].R.R.S.A.D.I.F.I.[am]}$$$$V2.0) | 0.004 µM | 57% | ** (EC50 25-50 nM (hAPJ), % IA 50-79% and either % histamine>35% or formal (+) charge>1) | 53% | – | – | –
– | – | – | CCCCCCCCCCCCCCCC(=O)N[C@H](C(=O)N1CCC[C@H]1C(=O)N[C@H](C(=O)N[C@@H](Cc1ccccc1)C(=O)N[C@@H](CCCNC(=N)N)C(=O)N[C@@H](CO)C(=O)N[C@@H](CO)C(=O)N1CCC[C@H]1C(=O)N[C@@H](CCC(=O)O)C(=O)N[C@H](CCCCN)C(=O)N[C@@H](CCCNC(=N)N)C(=O)N[C@@H](CCCNC(=N)N)C(=O)N[C@@H](CO)C(=O)N[C@@H](C)C(=O)N[C@@H](CC(=O)O)C(=O)N[C@H](C(=O)N[C@@H](Cc1ccccc1)C(=O)N[C@H](C(N)=O)[C@@H](C)CC)[C@@H](C)CC)C(C)C)[C@@H](C)O [Compound 2] (HELM PEPTIDE1{[CCCCCCCCCCCCCCCC(=O)[*:2]].T.P.V.F.R.S.S.P.E.[dK].R.R.S.A.D.I.F.I.[am]}$$$$V2.0) | 0.004 µM | 60% | ** (EC50 25-50 nM (hAPJ), % IA 50-79% and either % histamine>35% or formal (+) charge>1) | 49% | – | – | –
0.009 µM | -1% | – | CCCCCCCCCCCCCCCC(=O)N1CCC[C@H]1C(=O)N[C@@H](CCC(=O)O)C(=O)N[C@H](CCCCN)C(=O)N[C@@H](CCCNC(=N)N)C(=O)N[C@@H](CCCNC(=N)N)C(=O)N[C@@H](CO)C(=O)N[C@@H](C)C(=O)N[C@@H](CC(=O)O)C(=O)N[C@H](C(=O)N[C@@H](Cc1ccccc1)C(=O)N1CCC[C@H]1C(N)=O)[C@@H](C)CC [Compound 4] (HELM PEPTIDE1{[CCCCCCCCCCCCCCCC(=O)[*:2]].P.E.[dK].R.R.S.A.D.I.F.P.[am]}$$$$V2.0) | – | 48% | * (EC50≦50 nM (hAPJ), % IA<50%) | – | – | – | –
– | – | – | CCCCCCCCCCCCCCCC(=O)N[C@@H](CC(=O)O)C(=O)N[C@H](C(=O)N[C@@H](Cc1c[nH]cn1)C(=O)N[C@@H](CCCNC(=N)N)C(=O)N[C@@H](CO)C(=O)N[C@@H](CO)C(=O)N[C@@H](CCC(=O)O)C(=O)N[C@H](CCCCN)C(=O)N[C@@H](CCCNC(=N)N)C(=O)N[C@@H](CCCNC(=N)N)C(=O)N[C@@H](CO)C(=O)N[C@@H](C)C(=O)N[C@@H](CC(=O)O)C(=O)N[C@H](C(=O)N[C@@H](Cc1ccccc1)C(=O)N[C@H](C(N)=O)[C@@H](C)CC)[C@@H](C)CC)C(C)C [Compound 35] (HELM PEPTIDE1{[CCCCCCCCCCCCCCCC(=O)[*:2]].D.V.H.R.S.S.E.[dK].R.R.S.A.D.I.F.I.[am]}$$$$V2.0) | 0.032 µM | 90% | *** (EC50 25-50 nM (hAPJ), % IA 50-79% and either % histamine≦35% or formal (+) charge≦1) | – | 50 to 79% | – | 0.025 to 0.05 µM
0.002 µM | – | inhibited | CCCCCCCCCCCCCCCC(=O)N[C@@H](CC(=O)O)C(=O)N[C@H](C(=O)N[C@@H](Cc1c[nH]cn1)C(=O)N[C@@H](CCCNC(=N)N)C(=O)N[C@@H](CO)C(=O)N[C@@H](CO)C(=O)N[C@@H](CCC(=O)O)C(=O)N[C@H](CCCCN)C(=O)N[C@@H](CCCNC(=N)N)C(=O)N[C@@H](CCCNC(=N)N)C(=O)N[C@@H](CO)C(=O)N[C@@H](C)C(=O)N[C@@H](CC(=O)O)C(=O)N[C@@H](CCC(N)=O)C(=O)N[C@@H](Cc1ccccc1)C(=O)N[C@H](C(N)=O)[C@@H](C)CC)C(C)C [Compound 36] (HELM PEPTIDE1{[CCCCCCCCCCCCCCCC(=O)[*:2]].D.V.H.R.S.S.E.[dK].R.R.S.A.D.Q.F.I.[am]}$$$$V2.0) | – | 101% | ***** (EC50≦25 nM (hAPJ), % IA≧80% and either % histamine≦35% or formal (+) charge≦1) | – | ≥ 80% | ≤ 0.025 µM | –

SMILES | EC50 [1, 4] | Histamine (% vs. 48/80) (rat peritoneal cells) | inhibition of NKH477-stimulated increase in cAMP, dose dependent ([1]; concentration response curves, FIGS. 1 and 2, HEK cells stably expressing APJ) | EC50 [1, 2] | % IA (cAMP inhibition, hAPJ HEK) ([1]; Table 6, hAPJ HEK cells) | Ranking [1] | Histamine (% vs. 48/80) (rat peritoneal cells; [3]) | Emax [1, 5] | EC50 [1, 6] | EC50 ([1]; EC50 (hAPJ), inhibition of cAMP production, bound stated, HTRF cAMP Assay, per data of Table 6)
CCCCCCCCCCCCCCCC(=O)N[C@H](C(=O)N[C@H](C(=O)N[C@@H](CC(=O)O)C(=O)N[C@@H](CCCNC(=N)N)C(=O)N[C@@H](CO)C(=O)N[C@@H](CO)C(=O)N[C@@H](CCC(=O)O)C(=O)N[C@H](CCCCN)C(=O)N[C@@H](CCCNC(=N)N)C(=O)N[C@@H](CCCNC(=N)N)C(=O)N[C@@H](CO)C(=O)N[C@@H](C)C(=O)N[C@@H](CC(=O)O)C(=O)N[C@@H](Cc1ccc(CN)cc1)C(=O)N[C@@H](Cc1ccccc1)C(=O)N[C@H](C(N)=O)[C@@H](C)CC)C(C)C)[C@@H](C)O [Compound 34, TVDRSSEkRRSAD(p-CH2NH2-Phe)FI] (HELM PEPTIDE1{[CCCCCCCCCCCCCCCC(=O)[*:2]].T.V.D.R.S.S.E.[dK].R.R.S.A.D.[NCc1ccc(C[C@H](N[*:1])C(=O)[*:2])cc1].F.I.[am]}$$$$V2.0) | 0.03 µM | – | – | – | 104% | *** (EC50 25-50 nM (hAPJ), % IA 50-79% and either % histamine≦35% or formal (+) charge≦1) | – | 50 to 79% | 0.025 to 0.05 µM | –

Reference: patent publication US20160159861A1, “APJ Receptor Compounds” (priority 2013, published 2016)
